Key:
Aphis craccivoral = test: Insecticidal activity against Aphis craccivoral by immersing (dipping aphids on bean sprout); type: in vivo; settings: for mortality (%) (500 ppm) Aphis: 23° C.; for mortality at 500 ppm: Aphis, 24 h, read-out: mortality (%) (500 ppm) Aphis
Experimental: (§1) Test on the insecticidal activity of Compound Nos. 1-227
Aphis, which belongs to Homoptera and has a piercing-sucking mouthpart, is a common insect for agricultural plant. Aphis craccivoral was tested by the way of immersing.
Test method: exactly weighed various samples were independently added to N,N-dimethylformamide to form a 10 g/L stock solution. The mixture was diluted with 0.2 mL/L aqueous Triton X-100 solution to a concentration of 500 ug/mL. After stably sucking on bean sprout, the adult aphis without wings together with bean sprout was dipped into 500 ug/mL dilution, taken out after 5 seconds, and the excess dilution was sucked out with bibulous paper and the adult aphis without wings was incubated in clean vessel at a constant temperature of 23° C. Each concentration was repeated for 3 times and the control group contained 0.2 mL/L aqueous Triton X-100 solution. The number of killed aphis was counted after 24 hours to calculate the mortality.

Nilaparvata lugens = test: Insecticidal activity against Nilaparvata lugens (planthopper) by spraying; type: in vivo; settings: for mortality (%) (500 ppm) Nilaparvata lugens: spraying 2 ml, counted after 24 hours; for mortality at 500 ppm: Nilaparvata lugens, 24 h, read-out: mortality (%) (500 ppm) Nilaparvata lugens; for mortality (%) (500 ppm) Nilaparvata-lugens: spraying 2 ml per tumbler, killed counted after 24 hours
Experimental: as §1
Planthopper, which belongs to Homoptera and has a piercing-sucking mouthpart, is a common insect for agricultural plant. Nilaparvata lugens was tested by the way of spraying.
Test method: the test compound was exactly formulated into a solution having a certain concentration and clean water was used as a blank control. Each process was repeated for 3 tumblers (3 times). 2 ml of solution was sprayed uniformly to each tumbler by a mini manual sprayer. 10 Nilaparvata lugens were introduced to every sink 6 hours before spraying. Three series of experiments were conducted. The number of killed Nilaparvata lugens was counted after 24 hours to calculate the mortality.

[1] = 500 ppm, immersing (dipped 5 seconds), counted after 24 hours
[2] = 500 ppm (500 ug/mL dilution), dipped 5 seconds, killed aphis counted after 24 hours

Structure (SMILES) | mortality (%) (500 ppm) Aphis (Aphis craccivoral; [1]) | mortality (%) (500 ppm) Nilaparvata lugens (Nilaparvata lugens) | further results
COCCOC1CCC([N+](=O)[O-])=C2N(Cc3cnc(Cl)s3)CCN21 (stereo not shown) [Compound 43] | 100% | 100% | 
O=C(OC1CCC([N+](=O)[O-])=C2N(Cc3ccc(Cl)nc3)CCN21)c1ccc(C(F)(F)F)cc1 (stereo not shown) [Compound 126] | 93% | 100% | 
O=C(OC1CCC([N+](=O)[O-])=C2N(Cc3ccc(Cl)nc3)CCN21)c1ccc(Cl)cc1 (stereo not shown) [Compound 124] | 22% | 0% | 
O=[N+]([O-])C1=C2N(Cc3ccc(Cl)nc3)CCN2C(O)CC1 (stereo not shown) [Compound 1] |  |  | mortality at 500 ppm (Aphis craccivoral): 96%; mortality at 500 ppm (Nilaparvata lugens): 100%
CCCCCSC1CCC([N+](=O)[O-])=C2N(Cc3cnc(Cl)s3)CCN21 (stereo not shown) [Compound 182] |  |  | mortality (%) (500 ppm) Aphis (Aphis craccivoral; [2]): 67%; mortality (%) (500 ppm) Nilaparvata-lugens (Nilaparvata lugens): 87%
O=C(OC1CCC([N+](=O)[O-])=C2N(Cc3ccc(Cl)nc3)CCN21)c1cc(F)c(F)c([N+](=O)[O-])c1F (stereo not shown) [Compound 130] | 23% | 67% | 
CCCC(C)N=C1CCC([N+](=O)[O-])=C2N(Cc3ccc(Cl)nc3)CCCN12 (stereo not shown) [Compound 210] |  |  | mortality (%) (500 ppm) Aphis (Aphis craccivoral; [2]): 7%; mortality (%) (500 ppm) Nilaparvata-lugens (Nilaparvata lugens): 77%
CCOCCSC1CCC([N+](=O)[O-])=C2N(Cc3ccc(Cl)nc3)CCN21 (stereo not shown) [Compound 149] | 98% | 100% | 
CCC(C)SC1CCC([N+](=O)[O-])=C2N(Cc3ccc(Cl)nc3)CCN21 (stereo not shown) [Compound 144] | 12% | 56% | 
CC(C)(C)OC1CCC([N+](=O)[O-])=C2N(Cc3ccc(Cl)nc3)CCCN21 (stereo not shown) [Compound 82] | 12% | 34% | 
CCCN=C1CCC([N+](=O)[O-])=C2N(Cc3cnc(Cl)s3)CCCN12 [Compound 225] |  |  | mortality (%) (500 ppm) Aphis (Aphis craccivoral; [2]): 35%; mortality (%) (500 ppm) Nilaparvata-lugens (Nilaparvata lugens): 78%
CC(C)(OC1CCC([N+](=O)[O-])=C2N(Cc3cnc(Cl)s3)CCN21)C(Cl)(Cl)Cl (racemic) [Compound 35] | 98% | 100% | 
CCCN=C1CCC([N+](=O)[O-])=C2N(Cc3ccc(Cl)nc3)CCN12 [Compound 192] |  |  | mortality (%) (500 ppm) Aphis (Aphis craccivoral; [2]): 86%; mortality (%) (500 ppm) Nilaparvata-lugens (Nilaparvata lugens): 100%
CC(C)(C)COC1CCC([N+](=O)[O-])=C2N(Cc3ccc(Cl)nc3)CCN21 (racemic) [Compound 17] | 100% | 100% | 
O=[N+]([O-])C1=C2N(CC3CCOC3)CCN2C(OCCCl)CC1 (stereo not shown) [Compound 48] | 3% | 0% | 
C=CCOC1CCC([N+](=O)[O-])=C2N(CC3CCOC3)CCN21 (stereo not shown) [Compound 64] | 37% | 46% | 
CC(C)(C)COC1CCC([N+](=O)[O-])=C2N(Cc3cnc(Cl)s3)CCN21 (racemic) [Compound 39] | 24% | 35% | 
O=[N+]([O-])C1=C2N(Cc3ccc(Cl)nc3)CCCN2C(OCC(F)(F)F)CC1 (stereo not shown) [Compound 75] | 88% | 100% | 
CCOC1CCC([N+](=O)[O-])=C2N(Cc3ccc(Cl)nc3)CCCN21 (stereo not shown) [Compound 73] | 34% | 56% | 
O=[N+]([O-])C1=C2N(Cc3ccc(Cl)nc3)CCCN2C(O)CC1 (stereo not shown) [Compound 71] | 6% | 0% | 
O=[N+]([O-])C1=C2N(Cc3ccc(Cl)nc3)CCN2C(SCC(F)(F)F)CC1 (stereo not shown) [Compound 135] | 98% | 100% | 
CCC(C)OC1CCC([N+](=O)[O-])=C2N(Cc3ccc(Cl)nc3)CCCN21 (stereo not shown) [Compound 81] | 12% | 8% | 
CC(C)(C)SC1CCC([N+](=O)[O-])=C2N(Cc3cnc(Cl)s3)CCN21 (stereo not shown) [Compound 181] |  |  | mortality (%) (500 ppm) Aphis (Aphis craccivoral; [2]): 45%; mortality (%) (500 ppm) Nilaparvata-lugens (Nilaparvata lugens): 78%
CC(C)COC1CCC([N+](=O)[O-])=C2N(CC3CCOC3)CCCN21 (stereo not shown) [Compound 108] | 1% | 9% | 
COC1CCC([N+](=O)[O-])=C2N(Cc3cnc(Cl)s3)CCCN21 (stereo not shown) [Compound 86] | 100% | 100% | 

Structure (SMILES) | mortality (%) (500 ppm) Aphis (Aphis craccivoral; [1]) | mortality (%) (500 ppm) Nilaparvata lugens (Nilaparvata lugens) | further results
CCCC(C)SC1CCC([N+](=O)[O-])=C2N(Cc3ccc(Cl)nc3)CCN21 (stereo not shown) [Compound 146] | 35% | 97% | 
COC1CCC([N+](=O)[O-])=C2N(Cc3ccc(Cl)nc3)CCN21 (stereo not shown) [Compound 2] |  |  | mortality at 500 ppm (Aphis craccivoral): 100%; mortality at 500 ppm (Nilaparvata lugens): 100%
CCCCOC1CCC([N+](=O)[O-])=C2N(CC3CCOC3)CCCN21 (stereo not shown) [Compound 107] | 7% | 0% | 
CC(C)(C)OC1CCC([N+](=O)[O-])=C2N(CC3CCOC3)CCN21 (stereo not shown) [Compound 56] | 100% | 100% | 
O=C(OC1CCC([N+](=O)[O-])=C2N(Cc3cnc(Cl)s3)CCN21)c1cccnc1 (stereo not shown) [Compound 159] | 0% | 8% | 
COCCOC1CCC([N+](=O)[O-])=C2N(Cc3ccc(Cl)nc3)CCCN21 (stereo not shown) [Compound 83] | 38% | 26% | 
O=[N+]([O-])C1=C2N(CC3CCOC3)CCCN2C(OCC(F)(F)F)CC1 (stereo not shown) [Compound 103] | 6% | 100% | 
CCOC1CCC([N+](=O)[O-])=C2N(CC3CCOC3)CCCN21 (stereo not shown) [Compound 101] | 76% | 90% | 
CCCCCOC1CCC([N+](=O)[O-])=C2N(Cc3cnc(Cl)s3)CCN21 (racemic) [Compound 36] | 34% | 57% | 
CCOCCOC1CCC([N+](=O)[O-])=C2N(Cc3cnc(Cl)s3)CCN21 (stereo not shown) [Compound 44] | 67% | 100% | 
CCOCCOC1CCC([N+](=O)[O-])=C2N(CC3CCOC3)CCN21 (stereo not shown) [Compound 67] | 100% | 100% | 
CC(C)COC1CCC([N+](=O)[O-])=C2N(Cc3ccc(Cl)nc3)CCCN21 (stereo not shown) [Compound 80] | 23% | 34% | 
O=C(OC1CCC([N+](=O)[O-])=C2N(Cc3ccc(Cl)nc3)CCN21)c1cc(F)c(F)c(F)c1F (stereo not shown) [Compound 128] | 0% | 21% | 
CC(C)CCN=C1CCC([N+](=O)[O-])=C2N(Cc3ccc(Cl)nc3)CCCN12 [Compound 209] |  |  | mortality (%) (500 ppm) Aphis (Aphis craccivoral; [2]): 23%; mortality (%) (500 ppm) Nilaparvata-lugens (Nilaparvata lugens): 26%
CC(C)OC1CCC([N+](=O)[O-])=C2N(Cc3ccc(Cl)nc3)CCCN21 (stereo not shown) [Compound 77] | 56% | 78% | 
O=[N+]([O-])C1=C2N(Cc3cnc(Cl)s3)CCCN2C(O)CC1 (stereo not shown) [Compound 85] | 12% | 23% | 
O=[N+]([O-])C1=C2N(Cc3cnc(Cl)s3)CCN2C(=NCCCl)CC1 [Compound 215] |  |  | mortality (%) (500 ppm) Aphis (Aphis craccivoral; [2]): 9%; mortality (%) (500 ppm) Nilaparvata-lugens (Nilaparvata lugens): 97%
O=[N+]([O-])C1=C2N(Cc3ccc(Cl)nc3)CCN2C(Oc2ccccc2)CC1 (stereo not shown) [Compound 112] | 38% | 75% | 
O=C(OC1CCC([N+](=O)[O-])=C2N(Cc3ccc(Cl)nc3)CCN21)C(Cl)(Cl)Cl (stereo not shown) [Compound 115] | 0% | 33% | 
CC(C)CCN=C1CCC([N+](=O)[O-])=C2N(Cc3ccc(Cl)nc3)CCN12 [Compound 196] |  |  | mortality (%) (500 ppm) Aphis (Aphis craccivoral; [2]): 12%; mortality (%) (500 ppm) Nilaparvata-lugens (Nilaparvata lugens): 25%
CCC(C)SC1CCC([N+](=O)[O-])=C2N(Cc3cnc(Cl)s3)CCN21 (stereo not shown) [Compound 180] |  |  | mortality (%) (500 ppm) Aphis (Aphis craccivoral; [2]): 34%; mortality (%) (500 ppm) Nilaparvata-lugens (Nilaparvata lugens): 78%
COCCOC1CCC([N+](=O)[O-])=C2N(Cc3cnc(Cl)s3)CCCN21 (stereo not shown) [Compound 97] | 78% | 100% | 
O=C(OC1CCC([N+](=O)[O-])=C2N(Cc3ccc(Cl)nc3)CCN21)c1ccccn1 (stereo not shown) [Compound 121] | 0% | 8% | 
O=C(OC1CCC([N+](=O)[O-])=C2N(Cc3cnc(Cl)s3)CCN21)c1ccc(C(F)(F)F)cc1 (stereo not shown) [Compound 165] |  |  | mortality (%) (500 ppm) Aphis (Aphis craccivoral; [2]): 90%; mortality (%) (500 ppm) Nilaparvata-lugens (Nilaparvata lugens): 100%
CCCOC1CCC([N+](=O)[O-])=C2N(CC3CCOC3)CCCN21 (stereo not shown) [Compound 104] | 3% | 24% | 

— patent publication US7655665B2, “Nitromethylene derivatives and their use” (East China University of Science and Technology, priority 2004, dated 2010)
